Calls of active or inactive are those of the source. No rule for the calls is given here.
Assays:
Test in all cases: in-cell serine hydrolase inhibition profile, late-stage follow-up, selectivity assay for PME-1 inhibitor project, ABPP-SILAC, LC-MS/MS, mouse cells (AID 588803)
Ddhd2 = conditions: serine hydrolase ratios, stronger effect = lower value
Ppt2 = conditions: serine hydrolase ratios, stronger effect = lower value
Acot7 = conditions: serine hydrolase ratios, stronger effect = lower value
Htra2 = conditions: serine hydrolase ratios, stronger effect = lower value
Pnpla8 = conditions: serine hydrolase ratios, stronger effect = lower value
Dpp7 = conditions: serine hydrolase ratios, stronger effect = lower value
Prcp = conditions: serine hydrolase ratios, stronger effect = lower value
Iah1 = conditions: serine hydrolase ratios, stronger effect = lower value
Acot9 = conditions: serine hydrolase ratios, stronger effect = lower value
Fam108b1 = conditions: serine hydrolase ratios, stronger effect = lower value
Ctsa = conditions: serine hydrolase ratios, stronger effect = lower value
[1] = target: Platelet-activating factor acetylhydrolase 2, cytoplasmic (Mus musculus) (UniProt Q8VDG7); conditions: serine hydrolase ratios, Pafah2, stronger effect = lower value
Platelet-activating factor acetylhydrolase 2, cytoplasmic (Mus musculus), sequence (Q8VDG7 whole entry, looked up): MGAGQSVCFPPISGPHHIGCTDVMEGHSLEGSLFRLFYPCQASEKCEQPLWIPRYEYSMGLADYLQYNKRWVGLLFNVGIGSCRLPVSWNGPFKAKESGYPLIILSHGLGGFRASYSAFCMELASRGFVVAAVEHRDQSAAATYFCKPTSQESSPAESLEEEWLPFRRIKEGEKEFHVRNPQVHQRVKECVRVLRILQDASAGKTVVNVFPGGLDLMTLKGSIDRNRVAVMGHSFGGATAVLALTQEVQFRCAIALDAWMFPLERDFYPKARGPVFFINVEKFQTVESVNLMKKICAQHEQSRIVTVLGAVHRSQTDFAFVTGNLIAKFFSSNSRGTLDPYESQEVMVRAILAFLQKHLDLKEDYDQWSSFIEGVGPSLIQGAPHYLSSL

Apeh = conditions: serine hydrolase ratios, stronger effect = lower value
Ache = conditions: serine hydrolase ratios, stronger effect = lower value
Pafah1b2 = conditions: serine hydrolase ratios, stronger effect = lower value
Bat5 = conditions: serine hydrolase ratios, stronger effect = lower value
Parl = conditions: serine hydrolase ratios, stronger effect = lower value
Nceh1 = conditions: serine hydrolase ratios, stronger effect = lower value
[2] = target: Acyl-protein thioesterase 1 (Mus musculus) (UniProt P97823); conditions: serine hydrolase ratios, Lypla1, stronger effect = lower value
Acyl-protein thioesterase 1 (Mus musculus), sequence (P97823 whole entry, looked up): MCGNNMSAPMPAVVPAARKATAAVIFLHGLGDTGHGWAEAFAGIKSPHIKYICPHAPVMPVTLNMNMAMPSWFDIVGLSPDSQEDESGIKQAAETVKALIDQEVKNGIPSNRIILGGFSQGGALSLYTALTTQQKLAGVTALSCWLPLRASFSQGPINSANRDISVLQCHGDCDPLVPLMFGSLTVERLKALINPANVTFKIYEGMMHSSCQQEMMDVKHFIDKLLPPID

Abhd12 = conditions: serine hydrolase ratios, stronger effect = lower value
Lypla2 = conditions: serine hydrolase ratios, stronger effect = lower value
Rbbp9 = conditions: serine hydrolase ratios, stronger effect = lower value
Acot2 = conditions: serine hydrolase ratios, stronger effect = lower value
Lyplal1 = conditions: serine hydrolase ratios, stronger effect = lower value
Pme1 = conditions: serine hydrolase ratios, stronger effect = lower value
[3] = target: Palmitoyl-protein thioesterase ABHD10, mitochondrial (Mus musculus) (UniProt Q6PE15); conditions: serine hydrolase ratios, stronger effect = lower value
Palmitoyl-protein thioesterase ABHD10, mitochondrial (Mus musculus), sequence (Q6PE15 whole entry, looked up): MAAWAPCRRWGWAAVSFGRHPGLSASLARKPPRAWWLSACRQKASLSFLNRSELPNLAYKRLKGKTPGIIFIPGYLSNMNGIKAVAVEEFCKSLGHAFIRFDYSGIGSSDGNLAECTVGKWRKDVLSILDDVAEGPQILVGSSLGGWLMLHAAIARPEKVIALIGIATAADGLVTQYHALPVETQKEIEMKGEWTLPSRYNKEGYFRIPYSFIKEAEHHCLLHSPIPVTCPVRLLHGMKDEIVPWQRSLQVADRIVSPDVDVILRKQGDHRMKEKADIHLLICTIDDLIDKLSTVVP

Pgap1 = conditions: serine hydrolase ratios, stronger effect = lower value
[4] = target: Monoacylglycerol lipase ABHD6 (Mus musculus) (UniProt Q8R2Y0); conditions: serine hydrolase ratios, stronger effect = lower value
Monoacylglycerol lipase ABHD6 (Mus musculus), sequence (Q8R2Y0 whole entry, looked up): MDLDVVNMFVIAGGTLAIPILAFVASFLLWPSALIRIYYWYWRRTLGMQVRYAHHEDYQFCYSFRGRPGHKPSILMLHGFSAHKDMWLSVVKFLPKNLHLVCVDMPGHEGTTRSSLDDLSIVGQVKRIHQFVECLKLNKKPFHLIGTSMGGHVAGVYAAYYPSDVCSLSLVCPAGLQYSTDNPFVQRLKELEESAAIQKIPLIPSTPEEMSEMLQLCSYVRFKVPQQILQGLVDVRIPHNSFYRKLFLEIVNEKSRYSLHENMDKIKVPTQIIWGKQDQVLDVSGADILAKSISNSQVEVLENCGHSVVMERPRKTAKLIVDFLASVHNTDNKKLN

Abhd11 = conditions: serine hydrolase ratios, stronger effect = lower value
Serhl = conditions: serine hydrolase ratios, stronger effect = lower value
Dpp9 = conditions: serine hydrolase ratios, stronger effect = lower value
Pla2g15 = conditions: serine hydrolase ratios, stronger effect = lower value
Prepl = conditions: serine hydrolase ratios, stronger effect = lower value
Acot1 = conditions: serine hydrolase ratios, stronger effect = lower value
Fasn = conditions: serine hydrolase ratios, stronger effect = lower value
Pafah1b3 = conditions: serine hydrolase ratios, stronger effect = lower value
Dpp8 = conditions: serine hydrolase ratios, stronger effect = lower value
Pla2g6 = conditions: serine hydrolase ratios, stronger effect = lower value
[5] = target: Prolyl endopeptidase (Mus musculus) (UniProt Q9QUR6); conditions: serine hydrolase ratios, Prep, stronger effect = lower value
Prolyl endopeptidase (Mus musculus), sequence (Q9QUR6 whole entry, looked up): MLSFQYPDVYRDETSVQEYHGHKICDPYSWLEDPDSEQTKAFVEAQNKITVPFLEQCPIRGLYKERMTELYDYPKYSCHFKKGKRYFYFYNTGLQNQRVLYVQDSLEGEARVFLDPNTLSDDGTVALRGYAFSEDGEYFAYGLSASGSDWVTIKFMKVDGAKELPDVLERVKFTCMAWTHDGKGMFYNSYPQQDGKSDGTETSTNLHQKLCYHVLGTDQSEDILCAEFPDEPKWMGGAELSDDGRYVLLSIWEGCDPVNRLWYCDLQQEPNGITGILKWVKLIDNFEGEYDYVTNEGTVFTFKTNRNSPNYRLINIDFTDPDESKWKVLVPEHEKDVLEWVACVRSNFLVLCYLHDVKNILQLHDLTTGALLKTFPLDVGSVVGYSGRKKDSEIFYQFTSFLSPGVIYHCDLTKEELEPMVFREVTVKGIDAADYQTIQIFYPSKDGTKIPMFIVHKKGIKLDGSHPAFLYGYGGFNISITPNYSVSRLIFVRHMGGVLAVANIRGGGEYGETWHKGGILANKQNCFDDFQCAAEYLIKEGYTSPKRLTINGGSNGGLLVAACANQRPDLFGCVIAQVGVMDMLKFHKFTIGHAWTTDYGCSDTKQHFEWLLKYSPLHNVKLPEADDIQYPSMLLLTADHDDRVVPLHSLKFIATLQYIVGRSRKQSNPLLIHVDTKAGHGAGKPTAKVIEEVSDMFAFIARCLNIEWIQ

Faah = conditions: serine hydrolase ratios, stronger effect = lower value

COC(=O)N1C(=O)[C@](c2ccccc2)(C2CCCC2)N1C(=O)OC
SILAC ratio (probe labeling remaining) (Ddhd2): 1.19 (inactive) | SILAC ratio (probe labeling remaining) (Ppt2): 0.812 (inactive) | SILAC ratio (probe labeling remaining) (Acot7): 1.32 (inactive) | SILAC ratio (probe labeling remaining) (Htra2): 1.07 (inactive) | SILAC ratio (probe labeling remaining) (Pnpla8): 1.09 (inactive) | SILAC ratio (probe labeling remaining) (Dpp7): 0.846 (inactive) | SILAC ratio (probe labeling remaining) (Prcp): 0.717 (inactive) | SILAC ratio (probe labeling remaining) (Iah1): 1 (inactive) | SILAC ratio (probe labeling remaining) (Acot9): 0.889 (inactive) | SILAC ratio (probe labeling remaining) (Fam108b1): 1.2 (inactive) | SILAC ratio (probe labeling remaining) (Ctsa): 0.869 (inactive) | SILAC ratio (probe labeling remaining) [1]: 0.913 (inactive) | SILAC ratio (probe labeling remaining) (Apeh): 0.821 (inactive) | SILAC ratio (probe labeling remaining) (Ache): 0.689 (inactive) | SILAC ratio (probe labeling remaining) (Pafah1b2): 0.887 (inactive) | SILAC ratio (probe labeling remaining) (Bat5): 1.06 (inactive) | SILAC ratio (probe labeling remaining) (Parl): 0.995 (inactive) | SILAC ratio (probe labeling remaining) (Nceh1): 1.01 (inactive) | SILAC ratio (probe labeling remaining) [2]: 1 (inactive) | SILAC ratio (probe labeling remaining) (Abhd12): 1.13 (inactive) | SILAC ratio (probe labeling remaining) (Lypla2): 0.927 (inactive) | SILAC ratio (probe labeling remaining) (Rbbp9): 1.06 (inactive) | SILAC ratio (probe labeling remaining) (Acot2): 0.873 (inactive) | SILAC ratio (probe labeling remaining) (Lyplal1): 1.29 (inactive) | SILAC ratio (probe labeling remaining) (Pme1): 0 | SILAC ratio (probe labeling remaining) [3]: 0.951 (inactive) | SILAC ratio (probe labeling remaining) (Pgap1): 1.1 (inactive) | SILAC ratio (probe labeling remaining) [4]: 0.98 (inactive) | SILAC ratio (probe labeling remaining) (Abhd11): 0.946 (inactive) | SILAC ratio (probe labeling remaining) (Serhl): 1.12 (inactive) | SILAC ratio (probe labeling remaining) (Dpp9): 0.937 (inactive) | SILAC ratio (probe labeling remaining) (Pla2g15): 1.01 (inactive) | SILAC ratio (probe labeling remaining) (Prepl): 0.931 (inactive) | SILAC ratio (probe labeling remaining) (Acot1): 0.914 (inactive) | SILAC ratio (probe labeling remaining) (Fasn): 0.971 (inactive) | SILAC ratio (probe labeling remaining) (Pafah1b3): 0.962 (inactive) | SILAC ratio (probe labeling remaining) (Dpp8): 0.859 (inactive) | SILAC ratio (probe labeling remaining) (Pla2g6): 0.796 (inactive) | SILAC ratio (probe labeling remaining) [5]: 1.01 (inactive) | SILAC ratio (probe labeling remaining) (Faah): 1.06 (inactive)
